One block for each compound: values may come before it.
How the values were obtained:
human FGFR4 kinase = target: T1, human FGFR4 kinase (Homo sapiens, UniProt P22455); test: FGFR4 kinase assay (Kinase HotSpot, Reaction Biology Corp.); assay type: biochemical; settings: for inhibition at 0.01 µM: 0.01 μM concentration, two independent experiments; for inhibition at 1 µM: fixed concentration 1 μM, mean of two independent experiments
T1 construct: purchased Reaction Biology Corporation (Malvern, PA, USA), contract assay service
Description: A FGFR4 kinase assay was performed at the Reaction Biology Corporation (Malvern, PA, USA) using a Kinase HotSpotSM assay platform (www.reactionbiology.com, last accessed at 19/10/2020). Briefly, human FGFR4 kinase (5–10 mU), peptide substrate, and poly[Glu:Tyr] (4:1) 0.2 mg/ml were prepared in a reaction buffer with a final volume of 25 µL. The compounds were delivered into the reaction, followed ∼20 min. later by the addition of a mixture of ATP and [γ-^33P-ATP] (specific activity approx. 500 cpm/pmol, concentration as required) to a final concentration of 10 µM. After incubation for 40 min. at 25 °C, the reaction was stopped by the addition of a 3% phosphoric acid solution. Then, the reaction was spotted onto a P30 filtermat, and unbound phosphate was removed by washing 3 times for 5 min in 75 mM phosphoric acid and once in methanol prior to drying and scintillation counting. […] IC50 values and curve fits were obtained using GraphPad Prism 5 software.

Hep3B cells = test: Cell proliferation assay (MTT), Hep3B; assay type: cell-based, human
Description: (§1) Human HCC cell lines, Hep3B and Huh7 were obtained from American Type Culture Collection (ATCC, Manassas, VA, USA). An H6c7 human normal pancreatic duct epithelial cell line was purchased from Kerafast (Boston, MA, USA). Hep3B and Huh7 cells were cultured in Dulbecco′s Modified Eagle′s Medium (DMEM) (Hyclone, Logan, UT, USA). The media were supplemented with 10% foetal bovine serum (FBS) (Gibco/ThermoFisher Scientific) and 1% penicillin/streptomycin (Gibco/ThermoFisher Scientific). H6c7 cells were maintained in a keratinocyte serum-free medium supplemented with a recombinant […] growth factor (rEGF) and bovine pituitary extract (Gibco/ThermoFisher Scientific). All the cells were incubated at 37 °C under a 5% CO2 atmosphere.
(§2) Cells were seeded at a density of 5000 cells/well in a 96-well plate. After overnight incubation, the cells were serum-starved using 1% FBS for 24 h. The next day, the cells were pre-treated with the different concentrations (0.1, 1, 3, 10, 30, 100 µM) of drugs for 1 h prior to the treatment with serum (10% FBS). After 48 h of incubation, 3–(4,5-dimethylthiazol-2-yl)-2,5-diphenyltetrazolium bromide (MTT) dye solution was added and incubated for 4 h. Next, DMSO was added, and after 30 min, the colour intensities were measured using a microplate reader (Versamax, Molecular Devices, Inc., USA) at 490 nm.

Huh7 cells = test: Cell proliferation assay (MTT), Huh7; assay type: cell-based, human
Description: as §1, §2

[1] = test system: Hep3B-xenografted CAM tumour model; test: CAM (chick chorioallantoic membrane) tumour model implanted with Hep3B cells; assay type: in vivo
Description: Fertile chicken eggs were purchased from Byeolbichon Farm (Gyeongbuk, South Korea) and incubated at 37 °C and under 55% relative humidity. On the 9th day of egg incubation (post-fertilization), false air sac was generated on the relatively flat side of eggs by a negative pressure technique. A small window (1 cm^2) was created on the false air sac surface of the eggs by separating the shell and membrane beneath (technique) using a grinding wheel (Dremel, Racine, WI, USA). Next, Hep3B cells were loaded at a density of 1.5 × 10^6 cells/CAM with or without compound. After four days of drug treatment, the tumour weight, number of vessel branch points within the tumour region were analysed.

FGFR2 = target: T2, FGFR2 (Homo sapiens, UniProt P21802); test: FGFR2 ADP-glow kinase assay; assay type: biochemical
T2 construct: purchased Promega, WI, USA
Description: (§3) FGFR1 ∼ 3 kinase assays were performed using the adenosine diphosphate (ADP)-glow kinase assay kit of FGFR1, FGFR2, and FGFR3 kinase enzyme systems (Promega, WI, USA) in accordance with the manufacturer’s instructions. […] The reaction was carried out at 25 °C for 1 h in a total volume of 25 µL. Subsequently, 25 µL of ADP-Glow reagent was added to the mixture, and then incubated for 40 min at 25 °C. After the addition of 50 µL of ADP detection reagents for 30 min at 25 °C, luminescence was measured using a Fluostar Omega microplate reader (BMG LABTECH GmbH, Ortenberg, Germany).

FGFR1 = target: T3, FGFR1 (Homo sapiens, UniProt P11362); test: FGFR1 ADP-glow kinase assay; assay type: biochemical
T3 construct: purchased Promega, WI, USA
Description: as §3

[2] = Cytotoxicity assay (MTT), H6c7; assay type: cell-based; settings: human, H6c7 normal pancreatic duct epithelial cells, 48 h treatment, mean ± SEM of three independent experiments, read-out: IC50 on cell viability (cytotoxicity), H6c7
Description: as §1
The cytotoxicity of the compounds was assessed by measuring the cell viability decrease using the MTT staining method. Briefly, H6c7 cells were seeded in a 96-well plate (Falcon, USA) at a density of 4 × 10^4 cells per well in keratinocyte serum-free medium. After 24 h, Cells were incubated with different concentrations (0.1, 1, 3, 10, 30, and 100) µM of each compound for 48 h, and the cell viability was measured using MTT assay. Optical density was measured at 540 nm using a microplate reader (BMG LABTECH).

FGFR3 = target: T4, FGFR3 (Homo sapiens, UniProt P22607); test: FGFR3 ADP-glow kinase assay; assay type: biochemical
T4 construct: purchased Promega, WI, USA
Description: as §3

[3] = four days after Hep3B xenograft on CAM
[4] = number of new vessel branches on CAM, four days

T2 sequence (P21802 22-821): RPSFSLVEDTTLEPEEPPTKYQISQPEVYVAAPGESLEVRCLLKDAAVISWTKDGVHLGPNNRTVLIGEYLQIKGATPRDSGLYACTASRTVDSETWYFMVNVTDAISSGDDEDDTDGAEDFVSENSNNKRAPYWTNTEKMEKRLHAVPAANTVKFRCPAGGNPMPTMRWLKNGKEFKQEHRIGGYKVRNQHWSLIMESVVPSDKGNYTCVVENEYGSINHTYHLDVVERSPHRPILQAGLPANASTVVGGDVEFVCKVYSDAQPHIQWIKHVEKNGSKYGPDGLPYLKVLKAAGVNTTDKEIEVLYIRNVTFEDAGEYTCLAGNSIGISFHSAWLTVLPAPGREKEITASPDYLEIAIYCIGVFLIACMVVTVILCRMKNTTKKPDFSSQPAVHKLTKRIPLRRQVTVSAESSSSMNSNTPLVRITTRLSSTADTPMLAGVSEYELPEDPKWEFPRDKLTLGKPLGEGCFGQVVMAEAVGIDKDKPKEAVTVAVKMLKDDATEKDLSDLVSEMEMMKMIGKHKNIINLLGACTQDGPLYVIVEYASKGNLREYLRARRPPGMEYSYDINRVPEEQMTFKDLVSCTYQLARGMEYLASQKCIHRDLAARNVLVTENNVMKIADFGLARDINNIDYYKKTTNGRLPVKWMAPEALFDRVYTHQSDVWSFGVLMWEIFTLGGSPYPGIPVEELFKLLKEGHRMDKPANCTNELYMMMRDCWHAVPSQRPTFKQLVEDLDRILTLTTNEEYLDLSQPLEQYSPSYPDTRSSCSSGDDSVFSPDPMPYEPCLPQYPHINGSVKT
T1 sequence (P22455 22-802): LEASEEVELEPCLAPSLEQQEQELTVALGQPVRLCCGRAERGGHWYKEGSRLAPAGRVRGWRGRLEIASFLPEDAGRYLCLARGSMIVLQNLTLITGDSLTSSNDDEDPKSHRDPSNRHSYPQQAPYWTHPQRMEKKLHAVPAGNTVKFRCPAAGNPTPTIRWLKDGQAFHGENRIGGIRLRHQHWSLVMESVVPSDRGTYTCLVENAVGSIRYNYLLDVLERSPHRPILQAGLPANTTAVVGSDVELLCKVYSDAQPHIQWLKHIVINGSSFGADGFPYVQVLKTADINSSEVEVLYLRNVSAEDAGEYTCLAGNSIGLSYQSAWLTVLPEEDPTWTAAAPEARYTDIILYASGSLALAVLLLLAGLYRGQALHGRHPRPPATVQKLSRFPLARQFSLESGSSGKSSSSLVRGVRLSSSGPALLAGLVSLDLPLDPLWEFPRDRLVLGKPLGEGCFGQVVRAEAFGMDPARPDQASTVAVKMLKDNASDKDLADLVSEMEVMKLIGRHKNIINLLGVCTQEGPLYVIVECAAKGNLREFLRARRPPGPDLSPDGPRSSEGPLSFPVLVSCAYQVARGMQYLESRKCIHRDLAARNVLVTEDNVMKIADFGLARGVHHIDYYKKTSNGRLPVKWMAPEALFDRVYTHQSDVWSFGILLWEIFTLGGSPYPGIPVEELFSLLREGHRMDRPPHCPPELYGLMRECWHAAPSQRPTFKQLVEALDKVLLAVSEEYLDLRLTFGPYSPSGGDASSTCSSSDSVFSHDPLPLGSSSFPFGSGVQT
T4 sequence (P22607 23-806): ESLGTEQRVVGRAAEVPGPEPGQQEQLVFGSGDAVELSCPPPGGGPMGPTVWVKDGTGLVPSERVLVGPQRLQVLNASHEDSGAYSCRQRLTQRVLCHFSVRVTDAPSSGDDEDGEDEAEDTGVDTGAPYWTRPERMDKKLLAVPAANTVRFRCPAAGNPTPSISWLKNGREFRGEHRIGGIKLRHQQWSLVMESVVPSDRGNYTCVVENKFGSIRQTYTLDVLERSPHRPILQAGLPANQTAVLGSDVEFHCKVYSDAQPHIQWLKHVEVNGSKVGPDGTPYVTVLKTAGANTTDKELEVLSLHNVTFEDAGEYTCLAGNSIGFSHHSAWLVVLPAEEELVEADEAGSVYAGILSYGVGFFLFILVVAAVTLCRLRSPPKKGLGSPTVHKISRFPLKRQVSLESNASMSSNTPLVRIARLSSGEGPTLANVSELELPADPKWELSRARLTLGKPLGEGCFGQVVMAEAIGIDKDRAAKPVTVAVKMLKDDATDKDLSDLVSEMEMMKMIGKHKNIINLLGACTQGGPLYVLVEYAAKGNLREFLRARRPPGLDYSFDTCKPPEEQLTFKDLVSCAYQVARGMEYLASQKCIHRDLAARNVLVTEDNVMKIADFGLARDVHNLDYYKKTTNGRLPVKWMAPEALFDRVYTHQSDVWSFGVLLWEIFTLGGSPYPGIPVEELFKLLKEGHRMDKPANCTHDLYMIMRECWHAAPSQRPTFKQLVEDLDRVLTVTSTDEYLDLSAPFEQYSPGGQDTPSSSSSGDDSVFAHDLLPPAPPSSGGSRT
T3 sequence (P11362 22-822): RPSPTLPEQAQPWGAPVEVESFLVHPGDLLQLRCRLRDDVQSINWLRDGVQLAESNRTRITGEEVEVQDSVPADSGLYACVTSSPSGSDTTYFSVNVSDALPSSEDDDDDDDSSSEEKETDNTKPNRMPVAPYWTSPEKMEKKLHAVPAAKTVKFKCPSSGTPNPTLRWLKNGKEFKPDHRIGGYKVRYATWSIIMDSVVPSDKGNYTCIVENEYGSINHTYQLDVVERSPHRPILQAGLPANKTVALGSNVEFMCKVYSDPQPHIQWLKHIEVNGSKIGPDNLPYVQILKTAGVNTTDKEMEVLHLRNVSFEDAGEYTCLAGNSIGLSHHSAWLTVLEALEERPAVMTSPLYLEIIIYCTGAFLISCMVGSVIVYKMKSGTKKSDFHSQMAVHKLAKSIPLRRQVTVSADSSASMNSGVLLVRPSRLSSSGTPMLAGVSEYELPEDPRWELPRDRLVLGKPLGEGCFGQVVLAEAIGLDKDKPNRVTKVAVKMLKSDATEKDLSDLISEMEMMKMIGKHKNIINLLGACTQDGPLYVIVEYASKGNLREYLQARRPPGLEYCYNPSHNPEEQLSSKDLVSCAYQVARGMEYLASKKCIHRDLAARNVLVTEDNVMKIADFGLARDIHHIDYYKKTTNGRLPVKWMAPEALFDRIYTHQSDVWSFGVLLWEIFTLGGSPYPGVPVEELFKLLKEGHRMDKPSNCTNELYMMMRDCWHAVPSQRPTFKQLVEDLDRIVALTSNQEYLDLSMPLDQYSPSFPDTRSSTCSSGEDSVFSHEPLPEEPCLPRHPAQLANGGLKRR

- inhibition at 0.01 µM (human FGFR4 kinase): 3.3%
- inhibition at 1 µM (human FGFR4 kinase): 24.8%
SMILES: C=CC(=O)Nc1cccc(C)c1Nc1nc(C)c(OCc2c(F)c(OC)cc(OC)c2F)c(C)n1 [Compound 6G]

- inhibition at 1 µM (human FGFR4 kinase): 9.7%
SMILES: C=CC(=O)Nc1ccc(Nc2nc(C)c(OCc3c(F)c(OC)cc(OC)c3F)c(C)c2C)c(C)c1 [Compound 6I]

- inhibition at 1 µM (human FGFR4 kinase): 16.9%
SMILES: C=CC(=O)Nc1cn(C)nc1Nc1nc(C)c(OCc2c(Cl)c(OC)cc(OC)c2Cl)c(C)c1C [Compound 6B]

- inhibition at 1 µM (human FGFR4 kinase): 11%
SMILES: C=CC(=O)Nc1cccc(OC)c1Nc1nc(C)c(OCc2c(Cl)c(OC)cc(OC)c2Cl)c(C)n1 [Compound 6T]

- inhibition at 1 µM (human FGFR4 kinase): 6.3%
SMILES: C=CC(=O)Nc1ccc(OC)cc1Nc1nc(C)c(OCc2c(Cl)c(OC)cc(OC)c2Cl)c(C)n1 [Compound 6X]

- inhibition at 1 µM (human FGFR4 kinase): 7.7%
SMILES: C=CC(=O)Nc1ccc(OC)cc1Nc1nc(C)c(OCc2c(Cl)c(OC)cc(OC)c2Cl)c(C)c1C [Compound 6V]

- inhibition at 1 µM (human FGFR4 kinase): 4.9%
SMILES: C=CC(=O)Nc1ccc(Nc2nc(C)c(OCc3c(F)c(OC)cc(OC)c3F)c(C)n2)c(C)c1 [Compound 6K]

- inhibition at 1 µM (human FGFR4 kinase): 3.6%
SMILES: C=CC(=O)Nc1ccc(Nc2nc(C)c(OCc3c(Cl)c(OC)cc(OC)c3Cl)c(C)n2)c(C)c1 [Compound 6L]

SMILES: C=CC(=O)Nc1cc(F)cc(Cl)c1Nc1nc(C)c(OCc2c(F)c(OC)cc(OC)c2F)c(C)n1 [Compound 6O, N-(3-Chloro-2-((5-((2,6-difluoro-3,5-dimethoxybenzyl)oxy)-4,6-dimethylpyrimidin-2-yl)amino)-5-fluorophenyl)acrylamide]
- fold less potent than compound 1, Hep3B IC50 (Hep3B cells; 48 h): 5 fold
- IC50 (Hep3B cells; Homo sapiens, Hep3B, 48 h treatment, mean ± SEM of three independent experiments): 4.5 µM
- IC50 (Huh7 cells; Homo sapiens, Huh-7, 48 h treatment, mean ± SEM of three independent experiments): 12.6 ± 1.3 µM
- difference of anti-proliferative activity between Hep3B and Huh7 (Huh7 cells; Huh7 versus Hep3B, 48 h): 2.8 fold
- inhibitory effect on the tumour weight compared with compound 1 [1, 3]: slightly weaker
- tumour growth [1, 3]: dose-dependently inhibited
- antiangiogenic effect compared with compound 1 [1, 4]: slightly weaker
- tumour-induced angiogenesis [1, 4]: significantly blocked
- Ratio against FGFR4 (FGFR2) (FGFR2; ratio of FGFR2 to FGFR4 inhibitory activity): 471.1
- IC50 (FGFR2; three independent experiments): 35.5 µM
- Ratio against FGFR4 (FGFR1) (FGFR1; ratio of FGFR1 to FGFR4 inhibitory activity): > 663.8
- IC50 (FGFR1; three independent experiments): > 50 µM
- IC50 at 48 h [2]: 18 µM
- Ratio against FGFR4 (FGFR3) (FGFR3; ratio of FGFR3 to FGFR4 inhibitory activity): > 398.3
- IC50 (FGFR3; three independent experiments): > 30 µM
- IC50 (human FGFR4 kinase; 7 different concentrations, three independent experiments): 0.0753 µM
- inhibition at 1 µM (human FGFR4 kinase): 96.7%
- FGFR4 selectivity compared to BLU9931 (1) (human FGFR4 kinase; from Table 1 ratios): at least 8 times

- inhibition at 1 µM (human FGFR4 kinase): 11.9%
SMILES: C=CC(=O)Nc1cc(F)cc(Cl)c1Nc1nc(C)c(OCc2c(Cl)c(OC)cc(OC)c2Cl)c(C)c1C [Compound 6N]

- inhibition at 1 µM (human FGFR4 kinase): 10.4%
SMILES: C=CC(=O)Nc1ccc(N2CCN(CC)CC2)cc1Nc1nc(C)c(OCc2c(F)c(OC)cc(OC)c2F)c(C)c1C [Compound 6Y]

- inhibition at 1 µM (human FGFR4 kinase): 5.9%
SMILES: C=CC(=O)Nc1ccc(Nc2nc(C)c(OCc3c(Cl)c(OC)cc(OC)c3Cl)c(C)c2C)c(C)c1 [Compound 6J]

- inhibition at 1 µM (human FGFR4 kinase): 12.2%
SMILES: C=CC(=O)Nc1ccc(OC)cc1Nc1nc(C)c(OCc2c(F)c(OC)cc(OC)c2F)c(C)n1 [Compound 6W]

- inhibition at 0.01 µM (human FGFR4 kinase): 91%
SMILES: C=CC(=O)Nc1cccc(C)c1Nc1ccc(OCc2c(F)c(OC)cc(OC)c2F)cn1 [Compound 41, reference compound]

- inhibition at 1 µM (human FGFR4 kinase): 9.9%
SMILES: C=CC(=O)Nc1cc(F)cc(Cl)c1Nc1nc(C)c(OCc2c(F)c(OC)cc(OC)c2F)c(C)c1C [Compound 6M]

Source: PMC8933034, “6-Amino-2,4,5-trimethylpyridin-3-ol and 2-amino-4,6-dimethylpyrimidin-5-ol derivatives as selective fibroblast growth factor receptor 4 inhibitors: design, synthesis, molecular docking, and anti-hepatocellular carcinoma efficacy evaluation” (Journal of Enzyme Inhibition and Medicinal Chemistry, 2022)
